Among the data in article PMC7830757, “An Anti-Inflammatory 2,4-Cyclized-3,4-Secospongian Diterpenoid and Furanoterpene-Related Metabolites of a Marine Sponge Spongia sp. from the Red Sea” (Marine Drugs, 2021) are inhibition and IC50 values, retold here.

The structures appear in SMILES notation. Read-outs that look alike come from different tables or passages of the source.

For test [1], the system named is fMLF/CB-induced human neutrophils (superoxide anion generation). The test can be described thus: Superoxide anion generation in fMLF/CB-induced human neutrophils. The class given is cell-based. Particulars: Neutrophil; for inhibition at 10 µM: Homo sapiens, percentage of inhibition at 10 μM, read-out: Superoxide Anion Inh %; for IC50: fMLF/CB-induced human neutrophils. The procedure:
(§1) Human neutrophils were isolated from the blood of healthy adult volunteers and enriched by using dextran sedimentation, Ficoll–Hypaque gradient centrifugation, and hypotonic lysis, as described previously. Then, neutrophils were incubated in Ca^2+-free HBSS buffer (pH 7.4, ice-cold).
Neutrophils (6 × 10^5 cells/mL) incubated (with 0.6 mg/mL ferricytochrome c and 1 mM Ca^2+) in HBSS at 37 °C were treated with DMSO (as control) or tested compound for 5 min. Neutrophils were primed by 1 μg/mL cytochalasin B (CB) for 3 min before being activated by 100 nM fMLF for 10 min. The change of superoxide anion generation was spectrophotomically measured at 550 nm (U-3010, Hitachi, Tokyo, Japan). LY294002 [2-(4-morpholinyl)-8-phenyl-1(4H)-benzopyran- 4-one] was used as a positive control.

In test [2] the test system is fMLF/CB-induced human neutrophils (elastase release). The test can be described thus: Elastase release in fMLF/CB-induced human neutrophils. Particulars: Neutrophil; for inhibition at 10 µM: Homo sapiens, percentage of inhibition at 10 μM, read-out: Elastase Inh %; for IC50: fMLF/CB-induced human neutrophils. The class given is cell-based. The procedure:
as §1
Neutrophils (6 × 10^5 cells/mL) incubated (with 100 μM MeO-Suc-Ala-Ala-Pro-Val-p- nitroanilide and 1 mM Ca^2+) in HBSS at 37 °C were treated with DMSO or the tested compound for 5 min. Neutrophils were, then, activated with fMLF (100 nM)/CB (0.5 μg/mL) for 10 min. The change of elastase release was spectrophotomically measured at 405 nm (U-3010, Hitachi, Tokyo, Japan).

[3] abbreviates: mean ± SEM (n ≥ 3), read-out: Superoxide Anion IC50.
The mark [4] stands for this setting: mean ± SEM (n ≥ 3), read-out: Elastase IC50.
Where [5] appears, read: dash per footnote b, read-out: Superoxide Anion IC50 (dash class).
[6] abbreviates: dash per footnote b, read-out: Elastase IC50 (dash class).

On to `CC12CCC3C(C)(C1CCc1cocc12)C(O)C1(O)C(=O)OCC31C` (centres unmarked) [Compound 1, 17-dehydroxysponalactone], for which the inhibition at 10 µM in test [1] (mean ± SEM (n ≥ 3)) is 91.4%; in test [2] (mean ± SEM (n ≥ 3)), 90.3%. The values for the IC50 in test [1] (setting [3]) and in test [2] (setting [4]) were 3.37 µM and 4.07 µM, respectively.
On to `C/C(=C\CCc1ccoc1)CCC(=O)O` [Compound 2, (E)-7-(furan-3-yl)-4-methylhept-4-enoic acid], for which the inhibition at 10 µM in test [1] (mean ± SEM (n ≥ 3)) is 3.47%; in test [2] (mean ± SEM (n ≥ 3)) it was 14%. The 50% inhibitory concentration (IC50) in test [1] (setting [5]) and in test [2] (setting [6]) was above 10 µM each time.
In the case of `C/C(=C\CC(=O)NO)CCCc1ccoc1` [Compound 3, spongiafuranohydroxamic acid A], the inhibition at 10 µM is 8.85% in test [1] (mean ± SEM (n ≥ 3)) and 18% in test [2] (mean ± SEM (n ≥ 3)). Also, the half-maximal inhibitory concentration (IC50) in test [1] (setting [5]) and in test [2] (setting [6]) was above 10 µM throughout.
In the case of `CC(=CCCc1ccoc1)CCC=C(C)CCC(O)C1(C)CCC(=O)O1` (stereo not drawn) [Compound 4, 16-epi-irciformonin G], the inhibition at 10 µM in test [1] (mean ± SEM (n ≥ 3)) was 2.61%; in test [2] (mean ± SEM (n ≥ 3)) it was -1.07%. The IC50 in test [1] (setting [5]) and in test [2] (setting [6]) was above 10 µM in each case.
With `C/C(=C\CCc1ccoc1)CCC(=O)N[C@H]1CCOC1=O` [Compound 5, (−)-sponalisolide B], the values for the inhibition at 10 µM in test [1] (mean ± SEM (n ≥ 3)) and in test [2] (mean ± SEM (n ≥ 3)) were 67.1% and 35.2%, respectively. For the same compound, the IC50 in test [1] (setting [3]) is 5.31 µM; in test [2] (setting [6]), above 10 µM.
On to `CC1=C(O)C(=O)CC2(C)C1CCC1(CO)c3cocc3CCC12` (centres unmarked) [Compound 6, 18-nor-3,17-dihydroxyspongia-3,13(16),14-trien-2-one], for which the inhibition at 10 µM in test [1] (mean ± SEM (n ≥ 3)) stood at 9.44%; in test [2] (mean ± SEM (n ≥ 3)), 19.2%. For the same compound, the IC50 in test [1] (setting [5]) and in test [2] (setting [6]) was above 10 µM in each case.
`CC(C)CCC[C@@H](C)[C@H]1CC[C@H]2C3=CC(=O)[C@@]4(O)C[C@@H](O)CC[C@]4(C)[C@H]3CC[C@]12C` [Compound 7, cholesta-7-ene-3β,5α-diol-6-one]: the inhibition at 10 µM in test [1] (mean ± SEM (n ≥ 3)) was determined as 12.8%; in test [2] (mean ± SEM (n ≥ 3)), 25.9%. In addition, the IC50 in test [1] (setting [5]) and in test [2] (setting [6]) was above 10 µM throughout.
Consider `O=c1cc(N2CCOCC2)oc2c(-c3ccccc3)cccc12` [LY294002, 2-(4-morpholinyl)-8-phenyl-1(4H)-benzopyran-4-one, reference compound], for which the inhibition at 10 µM in test [1] (mean ± SEM (n ≥ 3)) amounted to 90.3%; in test [2] (mean ± SEM (n ≥ 3)), 77.6%. Besides, the half-inhibitory concentration (IC50) in test [1] (setting [3]) amounted to 1.88 µM; in test [2] (setting [4]), 2.58 µM.

What is called IC50 is the midpoint of a concentration-inhibition curve.
